Data taken from PMC6274539, “Photoactivatable Caged Prodrugs of VEGFR-2 Kinase Inhibitors” (Molecules, 2016).
Read-outs that look alike come from different tables or passages of the source.

Key:
PLK1 (Okadaic Acid) = PLK1 (Okadaic Acid) (Homo sapiens, UniProt P53350); test: kinase profiling, radioactive filter binding assay; type: biochemical; conditions: 0.1 µM compound, assay duplicates; read-out: residual activity of PLK1 (Okadaic Acid), mean percentage activity
Procedure: (§1) To compare the active inhibitors 1 and 3, a selectivity profile over 79 kinases was recorded. The residual kinase activities are presented as a heatmap (Figure 6, for raw data see Supplementary Table S1).
(§2) Compounds 1 and 3 were screened against 79 kinases. The used method was a radioactive filter binding assay using ^33P ATP, for details see references. The substances were dissolved in DMSO at tested concentration of 0.1 µM. The mean percentage residual kinase activity and standard deviations of assay duplicates were determined. Analyses were performed by the International Center for Kinase Profiling at the University of Dundee, UK.

SmMLCK = SmMLCK (Homo sapiens, UniProt Q15746); test: kinase profiling, radioactive filter binding assay; type: biochemical; conditions: 0.1 µM compound, assay duplicates; read-out: residual activity of SmMLCK, mean percentage activity
Chain of SmMLCK (Q15746 923-1914): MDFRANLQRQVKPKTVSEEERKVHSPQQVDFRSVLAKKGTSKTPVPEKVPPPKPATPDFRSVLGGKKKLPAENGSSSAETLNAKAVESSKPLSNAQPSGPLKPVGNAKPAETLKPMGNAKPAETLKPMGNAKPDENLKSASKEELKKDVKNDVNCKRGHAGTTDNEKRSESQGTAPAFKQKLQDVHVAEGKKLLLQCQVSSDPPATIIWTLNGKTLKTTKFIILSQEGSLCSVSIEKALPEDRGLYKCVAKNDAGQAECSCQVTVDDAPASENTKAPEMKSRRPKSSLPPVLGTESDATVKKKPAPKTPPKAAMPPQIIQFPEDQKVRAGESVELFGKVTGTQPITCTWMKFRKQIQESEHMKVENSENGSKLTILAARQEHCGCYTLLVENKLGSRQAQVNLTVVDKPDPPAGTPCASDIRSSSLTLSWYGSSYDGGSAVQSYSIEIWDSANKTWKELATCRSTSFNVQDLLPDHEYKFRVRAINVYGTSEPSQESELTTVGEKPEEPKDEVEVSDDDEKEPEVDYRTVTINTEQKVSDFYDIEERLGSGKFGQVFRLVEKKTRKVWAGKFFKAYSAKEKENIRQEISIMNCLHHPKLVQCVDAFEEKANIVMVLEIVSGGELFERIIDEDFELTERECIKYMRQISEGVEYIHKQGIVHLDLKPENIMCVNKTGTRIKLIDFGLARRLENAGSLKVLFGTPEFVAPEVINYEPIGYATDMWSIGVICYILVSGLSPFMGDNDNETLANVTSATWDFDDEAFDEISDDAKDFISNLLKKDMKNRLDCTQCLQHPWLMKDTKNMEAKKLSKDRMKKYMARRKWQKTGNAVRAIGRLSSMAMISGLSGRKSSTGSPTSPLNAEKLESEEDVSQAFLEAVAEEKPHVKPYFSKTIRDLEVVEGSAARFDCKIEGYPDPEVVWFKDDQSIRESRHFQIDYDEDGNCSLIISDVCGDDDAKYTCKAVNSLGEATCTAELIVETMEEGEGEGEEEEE
Procedure: as §1, §2

PRAK = PRAK (Homo sapiens, UniProt Q8IW41); test: kinase profiling, radioactive filter binding assay; type: biochemical; conditions: 0.1 µM compound, assay duplicates; read-out: residual activity of PRAK, mean percentage activity
Procedure: as §2, with “The” for “Compounds 1 and 3 were screened against 79 kinases. The”

JNK1 = JNK1 (Homo sapiens, UniProt P45983); test: kinase profiling, radioactive filter binding assay; type: biochemical; conditions: 0.1 µM compound, assay duplicates; read-out: residual activity of JNK1, mean percentage activity
Chain of JNK1 (P45983 whole entry): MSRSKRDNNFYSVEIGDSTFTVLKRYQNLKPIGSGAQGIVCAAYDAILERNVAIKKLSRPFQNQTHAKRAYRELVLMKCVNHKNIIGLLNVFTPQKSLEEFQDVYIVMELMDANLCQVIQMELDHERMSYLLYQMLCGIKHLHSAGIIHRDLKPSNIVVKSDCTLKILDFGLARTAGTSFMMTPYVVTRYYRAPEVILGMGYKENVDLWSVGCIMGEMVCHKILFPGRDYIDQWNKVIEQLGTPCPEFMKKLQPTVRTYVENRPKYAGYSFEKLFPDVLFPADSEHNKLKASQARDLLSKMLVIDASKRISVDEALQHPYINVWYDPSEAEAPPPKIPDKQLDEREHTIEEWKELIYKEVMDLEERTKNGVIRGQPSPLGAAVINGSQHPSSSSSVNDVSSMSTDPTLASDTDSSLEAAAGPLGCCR
Procedure: as §2, with “The” for “Compounds 1 and 3 were screened against 79 kinases. The”

CAMK1 = CAMK1 (Homo sapiens, UniProt Q14012); test: kinase profiling, radioactive filter binding assay; type: biochemical; conditions: 0.1 µM compound, assay duplicates; read-out: residual activity of CAMK1, mean percentage activity
Chain of CAMK1 (Q14012 whole entry): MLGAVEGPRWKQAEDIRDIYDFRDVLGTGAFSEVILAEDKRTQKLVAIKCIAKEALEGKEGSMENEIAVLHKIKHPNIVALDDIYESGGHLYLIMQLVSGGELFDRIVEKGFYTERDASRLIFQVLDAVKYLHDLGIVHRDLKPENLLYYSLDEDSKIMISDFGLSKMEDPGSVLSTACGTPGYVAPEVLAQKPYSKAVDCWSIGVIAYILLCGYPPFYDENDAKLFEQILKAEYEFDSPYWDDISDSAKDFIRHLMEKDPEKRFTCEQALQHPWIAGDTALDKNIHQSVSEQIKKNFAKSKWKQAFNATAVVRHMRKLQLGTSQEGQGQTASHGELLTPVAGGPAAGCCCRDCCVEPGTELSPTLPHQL
Procedure: as §2, with “The” for “Compounds 1 and 3 were screened against 79 kinases. The”

PRK2 = PRK2 (Homo sapiens, UniProt Q16513); test: kinase profiling, radioactive filter binding assay; type: biochemical; conditions: 0.1 µM compound, assay duplicates; read-out: residual activity of PRK2, mean percentage activity
Procedure: as §2, with “The” for “Compounds 1 and 3 were screened against 79 kinases. The”

P38b MAPK = P38b MAPK (Homo sapiens, UniProt Q15759); test: kinase profiling, radioactive filter binding assay; type: biochemical; conditions: 0.1 µM compound, assay duplicates; read-out: residual activity of P38b MAPK, mean percentage activity
Chain of P38b MAPK (Q15759 whole entry): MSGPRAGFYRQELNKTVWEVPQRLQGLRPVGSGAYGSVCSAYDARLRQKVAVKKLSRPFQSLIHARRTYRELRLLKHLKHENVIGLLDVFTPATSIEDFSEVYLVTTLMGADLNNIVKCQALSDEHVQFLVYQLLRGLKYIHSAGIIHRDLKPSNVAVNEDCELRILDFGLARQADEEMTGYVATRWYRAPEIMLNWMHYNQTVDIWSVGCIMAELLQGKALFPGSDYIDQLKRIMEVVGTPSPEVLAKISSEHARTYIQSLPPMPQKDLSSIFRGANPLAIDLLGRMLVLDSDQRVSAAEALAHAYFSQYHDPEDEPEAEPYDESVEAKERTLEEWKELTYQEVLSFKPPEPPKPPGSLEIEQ
Procedure: as §2, with “The” for “Compounds 1 and 3 were screened against 79 kinases. The”

PKC zeta = PKC zeta (Homo sapiens, UniProt Q05513); test: kinase profiling, radioactive filter binding assay; type: biochemical; conditions: 0.1 µM compound, assay duplicates; read-out: residual activity of PKC zeta, mean percentage activity
Chain of PKC zeta (Q05513 whole entry): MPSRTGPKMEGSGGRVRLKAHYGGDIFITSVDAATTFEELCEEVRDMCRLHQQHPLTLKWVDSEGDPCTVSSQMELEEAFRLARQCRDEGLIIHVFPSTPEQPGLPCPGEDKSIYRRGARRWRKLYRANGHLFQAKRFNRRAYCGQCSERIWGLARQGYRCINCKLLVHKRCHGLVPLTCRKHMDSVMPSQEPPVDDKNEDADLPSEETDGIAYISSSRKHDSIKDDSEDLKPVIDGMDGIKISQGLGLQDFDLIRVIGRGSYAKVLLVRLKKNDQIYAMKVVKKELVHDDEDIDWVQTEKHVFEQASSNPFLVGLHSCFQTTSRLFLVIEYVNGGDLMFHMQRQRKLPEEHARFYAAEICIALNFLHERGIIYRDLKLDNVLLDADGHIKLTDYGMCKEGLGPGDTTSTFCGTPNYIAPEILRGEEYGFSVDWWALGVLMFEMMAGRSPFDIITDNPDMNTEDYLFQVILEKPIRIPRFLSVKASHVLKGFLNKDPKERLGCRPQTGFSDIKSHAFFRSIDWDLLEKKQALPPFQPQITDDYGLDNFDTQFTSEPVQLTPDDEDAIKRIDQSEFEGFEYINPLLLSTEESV
Procedure: as §2, with “The” for “Compounds 1 and 3 were screened against 79 kinases. The”

MAPKAP-K2 = MAPKAP-K2 (Homo sapiens, UniProt P49137); test: kinase profiling, radioactive filter binding assay; type: biochemical; conditions: 0.1 µM compound, assay duplicates; read-out: residual activity of MAPKAP-K2, mean percentage activity
Procedure: as §2, with “The” for “Compounds 1 and 3 were screened against 79 kinases. The”

ERK8 = ERK8 (Homo sapiens, UniProt Q8TD08); test: kinase profiling, radioactive filter binding assay; type: biochemical; conditions: 0.1 µM compound, assay duplicates; read-out: residual activity of ERK8, mean percentage activity
Procedure: as §2, with “The” for “Compounds 1 and 3 were screened against 79 kinases. The”

PIM3 = PIM3 (Homo sapiens, UniProt Q86V86); test: kinase profiling, radioactive filter binding assay; type: biochemical; conditions: 0.1 µM compound, assay duplicates; read-out: residual activity of PIM3, mean percentage activity
Procedure: as §2, with “The” for “Compounds 1 and 3 were screened against 79 kinases. The”

Src = Src (Homo sapiens, UniProt P12931); test: kinase profiling, radioactive filter binding assay; type: biochemical; conditions: 0.1 µM compound, assay duplicates; read-out: residual activity of Src, mean percentage activity
Procedure: as §2, with “The” for “Compounds 1 and 3 were screened against 79 kinases. The”

IKKe = IKKe (Homo sapiens, UniProt Q14164); test: kinase profiling, radioactive filter binding assay; type: biochemical; conditions: 0.1 µM compound, assay duplicates; read-out: residual activity of IKKe, mean percentage activity
Procedure: as §2, with “The” for “Compounds 1 and 3 were screened against 79 kinases. The”

p38g MAPK = p38g MAPK (Homo sapiens, UniProt P53778); test: kinase profiling, radioactive filter binding assay; type: biochemical; conditions: 0.1 µM compound, assay duplicates; read-out: residual activity of p38g MAPK, mean percentage activity
Procedure: as §2, with “The” for “Compounds 1 and 3 were screened against 79 kinases. The”

PC-3 cells = test: cellular growth (proliferation) assay, resazurin; type: cell-based
Procedure: Growth assays on VEGFR-2 dependent PC-3 cells were performed.
PC-3 cells were purchased from CLS Cell Lines Service GmbH (Eppelheim, Germany). The cells were grown in DMEM:Hams F12 (1:1) medium with 5% FCS. PC-3 cells were incubated in a 5% CO2 humidified atmosphere at 37 °C.
The cells were grown in cell flasks until approximately 90% confluence and then seeded to give 13000 cells in 100 μL per well into 96-well CulturePlates™ (Perkin Elmer). In addition to the test plates, one plate was prepared for reference measurement at day zero. All plates were incubated for 24 h at 37 °C in a humidified atmosphere with 5% CO2. Compounds 1, 3, 4, and 5 were dissolved in 100% DMSO (v/v) and added to the test plates. The final DMSO concentration in the assay was 0.5% (v/v). Viability of the cells in the day zero control plates were determined on the same day without adding any compounds. For viability measurement the resazurin assay was used. The shift in the fluorescence signal was measured at the LS55 Fluorescence spectrometer (Perkin Elmer). For the photoactivation experiments the test plates were irradiated at 365 nm for 5 min (LED source: 8× Nichia NCSU033B, Sahlmann Photochemical Solutions, 50%, 1.1 kW/m^2). Test plates were incubated for further 48 h and cell viability was defined as described above. Measured raw data was converted into percent of cell growth by using the high control (0.5% DMSO (v/v) without compound) and the day zero control. For dose-response studies, 11 different concentrations of compounds were tested in duplicates. IC50 values were calculated using the 4-parameter logarithmic fit option of GraphPad Prism 5.

VEGFR-2 = molecular target: T1, VEGFR-2 (Homo sapiens, UniProt P35968); test: radiometric 33PanQinase VEGFR-2 kinase assay (ProQinase); type: biochemical; conditions: 10 semi-log concentrations, single samples, 1% DMSO
T1 construct: determined using VEGFR-2 protein kinase by a radiometric ^33PanQinase® assay; purchased ProQinase (Freiburg, Germany)
T1 sequence (P35968 20-1356): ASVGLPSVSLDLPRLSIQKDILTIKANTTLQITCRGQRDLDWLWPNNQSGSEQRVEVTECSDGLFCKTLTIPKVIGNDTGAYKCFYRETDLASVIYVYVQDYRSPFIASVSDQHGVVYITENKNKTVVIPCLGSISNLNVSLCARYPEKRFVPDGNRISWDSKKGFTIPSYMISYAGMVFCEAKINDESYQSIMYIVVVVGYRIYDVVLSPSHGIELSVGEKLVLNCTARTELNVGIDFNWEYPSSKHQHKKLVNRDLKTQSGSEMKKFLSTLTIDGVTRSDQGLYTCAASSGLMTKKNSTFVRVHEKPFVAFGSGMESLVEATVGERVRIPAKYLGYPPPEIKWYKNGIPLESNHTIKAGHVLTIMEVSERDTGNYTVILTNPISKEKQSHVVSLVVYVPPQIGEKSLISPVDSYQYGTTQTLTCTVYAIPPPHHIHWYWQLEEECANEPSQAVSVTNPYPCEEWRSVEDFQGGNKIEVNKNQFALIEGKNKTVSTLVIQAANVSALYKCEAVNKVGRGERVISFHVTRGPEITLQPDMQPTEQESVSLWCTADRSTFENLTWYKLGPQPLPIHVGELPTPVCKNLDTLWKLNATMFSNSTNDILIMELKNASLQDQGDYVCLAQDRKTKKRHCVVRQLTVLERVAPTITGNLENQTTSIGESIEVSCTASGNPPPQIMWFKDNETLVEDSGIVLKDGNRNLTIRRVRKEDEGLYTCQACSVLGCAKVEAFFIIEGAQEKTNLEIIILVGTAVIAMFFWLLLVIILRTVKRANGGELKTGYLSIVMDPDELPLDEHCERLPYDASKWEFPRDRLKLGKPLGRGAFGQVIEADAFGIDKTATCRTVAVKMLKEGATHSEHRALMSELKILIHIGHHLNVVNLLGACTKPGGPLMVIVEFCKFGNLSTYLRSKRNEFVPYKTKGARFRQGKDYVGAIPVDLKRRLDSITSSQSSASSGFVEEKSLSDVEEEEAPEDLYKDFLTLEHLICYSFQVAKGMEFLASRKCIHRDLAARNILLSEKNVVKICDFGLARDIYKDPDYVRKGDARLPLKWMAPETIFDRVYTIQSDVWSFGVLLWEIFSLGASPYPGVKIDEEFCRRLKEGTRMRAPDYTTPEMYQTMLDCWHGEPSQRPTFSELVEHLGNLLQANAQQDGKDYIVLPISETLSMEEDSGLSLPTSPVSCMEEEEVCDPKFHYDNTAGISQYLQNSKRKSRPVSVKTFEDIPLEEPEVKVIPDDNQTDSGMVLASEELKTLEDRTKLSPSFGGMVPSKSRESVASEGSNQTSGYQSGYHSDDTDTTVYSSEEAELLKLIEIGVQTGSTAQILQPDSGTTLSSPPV
Procedure: As predicted by molecular modeling, insertion of the protecting group DMNB should diminish the inhibitory activity both of the maleimide 1 and the carbazole 3. […] The IC50 values towards VEGFR-2 were determined (Table 1).
The VEGFR-2 IC50 profile for 1, 3, 4 and 5 was determined using VEGFR-2 protein kinase by a radiometric ^33PanQinase® assay. […] Prior to testing, the compounds were dissolved to prepare 1 × 10^−2 M stock solutions in 100% DMSO. The final DMSO concentration in the reaction cocktails was 1% in all cases. Analyses were performed by ProQinase (Freiburg, Germany).

[1] = Homo sapiens, PC-3, light or radiation study, 48 h, no UV irradiation, cell growth after 48 h, read-out: GI50 without Irradiation
[2] = Homo sapiens, PC-3, light or radiation study, irradiated at 365 nm, 5 min, 1.1 kW/m^2, cell growth after 48 h, read-out: GI50 after Irradiation

Chain of PLK1 (Okadaic Acid) (P53350 whole entry): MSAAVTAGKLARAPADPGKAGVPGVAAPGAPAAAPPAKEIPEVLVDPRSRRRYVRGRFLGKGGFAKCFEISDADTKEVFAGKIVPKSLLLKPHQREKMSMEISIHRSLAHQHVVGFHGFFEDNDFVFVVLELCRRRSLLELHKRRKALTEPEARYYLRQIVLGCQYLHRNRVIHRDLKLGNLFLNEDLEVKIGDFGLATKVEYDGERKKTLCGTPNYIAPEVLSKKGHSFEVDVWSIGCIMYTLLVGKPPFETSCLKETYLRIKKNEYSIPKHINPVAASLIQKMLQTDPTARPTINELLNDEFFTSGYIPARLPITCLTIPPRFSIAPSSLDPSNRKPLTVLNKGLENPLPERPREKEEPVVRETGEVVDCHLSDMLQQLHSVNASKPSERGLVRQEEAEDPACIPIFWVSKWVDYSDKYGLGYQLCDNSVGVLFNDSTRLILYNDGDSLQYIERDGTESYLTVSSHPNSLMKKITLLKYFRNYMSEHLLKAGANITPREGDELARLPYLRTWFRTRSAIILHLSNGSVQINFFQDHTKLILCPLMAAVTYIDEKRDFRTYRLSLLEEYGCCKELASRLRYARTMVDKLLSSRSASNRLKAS

SMILES | remaining activity at 0.1 µM (PLK1 (Okadaic Acid)) [%] | remaining activity at 0.1 µM (SmMLCK) [%] | remaining activity at 0.1 µM (PRAK) [%] | remaining activity at 0.1 µM (JNK1) [%] | remaining activity at 0.1 µM (CAMK1) [%] | remaining activity at 0.1 µM (PRK2) [%] | remaining activity at 0.1 µM (P38b MAPK) [%] | remaining activity at 0.1 µM (PKC zeta) [%] | remaining activity at 0.1 µM (MAPKAP-K2) [%] | remaining activity at 0.1 µM (ERK8) [%] | remaining activity at 0.1 µM (PIM3) [%] | remaining activity at 0.1 µM (Src) [%] | remaining activity at 0.1 µM (IKKe) [%] | remaining activity at 0.1 µM (p38g MAPK) [%] | GI50 (PC-3 cells; [1]) [nM] | GI50 (PC-3 cells; [2]) [nM] | IC50 (VEGFR-2) [nM] | GI50 (PC-3 cells; irradiated at 365 nm, 5 min, 1.1 kW/m^2, cell growth after 48 h, read-out: GI50 after Irradiation) [nM]
COc1cc(C2=C(c3c[nH]c4ccccc34)C(=O)NC2=O)cc(OC)c1OC [Compound 1, 3-(1H-Indol-3-yl)-4-(3,4,5-trimethoxyphenyl)-1H-pyrrole-2,5-dione] | 85 | 60 | 91 | 96 | 107 | 84 | 86 | 102 | 94 | 46 | 5 | 81 | 80 | 91 | 6400 | 2900 | 5 | –
COc1cc2c3c(c4c5ccccc5[nH]c4c2c(OC)c1OC)C(=O)NC3=O [Compound 3, 5,6,7-Trimethoxybenzo[a]pyrrolo[3,4-c]carbazole-1,3(2H,8H)-dione] | 83 | 30 | 85 | 96 | 94 | 52 | 89 | 98 | 95 | 11 | 4 | 86 | 63 | 86 | 200 | 380 | 152 | 400
